From PubChem BioAssay (NCI)
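Following 48 hours of exposure in 96-well plates, responses at five concentrations were used to interpolate endpoints linearly. The concentration for full growth arrest is given as TGI.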

How the values were obtained:
Test in all cases: inhibition of tumour cell growth, NCI panel, 48 h
SK-OV-3 ovarian = system: SK-OV-3 ovarian
ACHN renal = system: ACHN renal
SK-MEL-28 melanoma = system: SK-MEL-28 melanoma
OVCAR-5 ovarian = system: OVCAR-5 ovarian
OVCAR-4 ovarian = system: OVCAR-4 ovarian
TK-10 renal = system: TK-10 renal
UO-31 renal = system: UO-31 renal
CAKI-1 renal = system: CAKI-1 renal
HL-60(TB) leukemia = system: HL-60(TB) leukemia
SF-539 CNS = system: SF-539 CNS
NCI-H23 lung = system: NCI-H23 lung
A549 NSCLC = system: A549 NSCLC
OVCAR-3 ovarian = system: OVCAR-3 ovarian
CCRF-CEM leukemia = system: CCRF-CEM leukemia
U251 CNS = system: U251 CNS
HCT-15 colon = system: HCT-15 colon
IGROV1 ovarian = system: IGROV1 ovarian
UACC-257 melanoma = system: UACC-257 melanoma
SNB-19 CNS = system: SNB-19 CNS
EKVX NSCLC = system: EKVX NSCLC
PC-3 prostate = system: PC-3 prostate
MDA-MB-435 = system: MDA-MB-435
SF-295 CNS = system: SF-295 CNS
NCI-H226 lung = system: NCI-H226 lung
HT29 colon = system: HT29 colon
M14 melanoma = system: M14 melanoma
KM12 colon = system: KM12 colon
SF-268 CNS = system: SF-268 CNS
HCT-116 colon = system: HCT-116 colon
T-47D breast = system: T-47D breast
HOP-92 NSCLC = system: HOP-92 NSCLC
786-0 renal = system: 786-0 renal
HCC-2998 colon = system: HCC-2998 colon
MDA-N = system: MDA-N
MDA-MB-231 breast = system: MDA-MB-231 breast
LOX IMVI melanoma = system: LOX IMVI melanoma
SNB-75 CNS = system: SNB-75 CNS
HS 578T breast = system: HS 578T breast
NCI-H522 lung = system: NCI-H522 lung
SN12C renal = system: SN12C renal
SK-MEL-5 melanoma = system: SK-MEL-5 melanoma
K-562 leukemia = system: K-562 leukemia
BT-549 breast = system: BT-549 breast
RPMI-8226 leukemia = system: RPMI-8226 leukemia
OVCAR-8 ovarian = system: OVCAR-8 ovarian
SK-MEL-2 melanoma = system: SK-MEL-2 melanoma
NCI-H460 lung = system: NCI-H460 lung
HOP-62 NSCLC = system: HOP-62 NSCLC
RXF 393 renal = system: RXF 393 renal
UACC-62 melanoma = system: UACC-62 melanoma
DU-145 prostate = system: DU-145 prostate
MALME-3M melanoma = system: MALME-3M melanoma
NCI/ADR-RES ovarian = system: NCI/ADR-RES ovarian
A498 renal = system: A498 renal
SW-620 colon = system: SW-620 colon
COLO 205 colon = system: COLO 205 colon

With `COC1C(O)C(C)OC(OC2CC3CCC4C(CCC5(C)C(C6=CC(=O)OC6)CCC45O)C3(O)C(OC(C)=O)C2)C1O` (stereo unspecified) the TGI (SK-OV-3 ovarian) was 6.82 µM, the TGI (ACHN renal) was 2130 nM and the TGI (SK-MEL-28 melanoma) was over 37.6 µM. It also gave a TGI (OVCAR-5 ovarian) of 5.87 µM, a TGI (OVCAR-4 ovarian) of 17.1 µM and a TGI (TK-10 renal) of 6.8 µM. For the same compound, the TGI (UO-31 renal) was 4.51 µM, the TGI (CAKI-1 renal) was 3.43 µM and the TGI (HL-60(TB) leukemia) was 4.23 µM. The TGI (SF-539 CNS) was 1950 nM, the TGI (NCI-H23 lung) was 2610 nM and the TGI (A549 NSCLC) was 1410 nM. The TGI (OVCAR-3 ovarian) was 3.38 µM, the TGI (CCRF-CEM leukemia) was over 100 µM and the TGI (U251 CNS) was over 24.2 µM. It also gave a TGI (HCT-15 colon) of 5.41 µM, a TGI (IGROV1 ovarian) of 15.7 µM and a TGI (UACC-257 melanoma) of 16.5 µM. The TGI (SNB-19 CNS) was 14.9 µM, the TGI (EKVX NSCLC) was 3.14 µM and the TGI (PC-3 prostate) was 8.77 µM. For the same compound, the TGI (MDA-MB-435) was 10.5 µM, the TGI (SF-295 CNS) was 8.57 µM and the TGI (NCI-H226 lung) was 10.3 µM. The TGI (HT29 colon) was 12.7 µM, the TGI (M14 melanoma) was 5.5 µM and the TGI (KM12 colon) was over 48.8 µM. It also gave a TGI (SF-268 CNS) of 2540 nM, a TGI (HCT-116 colon) of 4.75 µM and a TGI (T-47D breast) of 12.7 µM. For the same compound, the TGI (HOP-92 NSCLC) was 11.6 µM, the TGI (786-0 renal) was over 100 µM and the TGI (HCC-2998 colon) was 13 µM. For the same compound, the TGI (MDA-N) was 5.05 µM, the TGI (MDA-MB-231 breast) was 97.3 µM and the TGI (LOX IMVI melanoma) was 4.7 µM. It also gave a TGI (SNB-75 CNS) of over 31.2 µM, a TGI (HS 578T breast) of over 100 µM and a TGI (NCI-H522 lung) of 3.21 µM. It also gave a TGI (SN12C renal) of 2600 nM, a TGI (SK-MEL-5 melanoma) of 2030 nM and a TGI (K-562 leukemia) of over 100 µM. For the same compound, the TGI (BT-549 breast) was 2020 nM, the TGI (RPMI-8226 leukemia) was 7.55 µM and the TGI (OVCAR-8 ovarian) was 5.35 µM. For the same compound, the TGI (SK-MEL-2 melanoma) was 10.1 µM, the TGI (NCI-H460 lung) was 2740 nM and the TGI (HOP-62 NSCLC) was 2590 nM. The TGI (RXF 393 renal) was 1320 nM, the TGI (UACC-62 melanoma) was 5.92 µM and the TGI (DU-145 prostate) was 1650 nM. The TGI (MALME-3M melanoma) was 3.74 µM, the TGI (NCI/ADR-RES ovarian) was 6.32 µM and the TGI (A498 renal) was 3.5 µM. The TGI (SW-620 colon) was over 36.7 µM and the TGI (COLO 205 colon) was 8.48 µM.
